Data on one compound can be found in patent US12502390B2, “Compositions comprising tigolaner for controlling parasites” ([…], priority 2019, dated 2025).

Structures are written as SMILES. Like-named read-outs stand apart in the source and are kept apart here.

One series concerns Musca domestica. To be noted: 100 ppm; cited from earlier work.
Series [1] relates to Boophilus microplus. The following applies: Boophilus microplus injection test; 20 μg/tick; cited from earlier work.
A further series concerns Ixodes ricinus. The following applies: Ixodes ricinus contact test; 1 μg/cm^2; cited from earlier work.
Series [2] can be described thus: Solubility of tigolaner in solketal (1,2-isopropylideneglycerol). It is filed as physicochemical. From the text: In another embodiment of the composition the solvent component comprises only 1,2-isopropylideneglycerol.
The subject of series [3] is Ctenocephalides felis. To be noted: rats, application rate 10 mg/kg, cited from earlier work.
Series [4] concerns Boophilus microplus. The following applies: Boophilus microplus dip test; 100 ppm; cited from earlier work.
The subject of another series is Dermacentor variabilis. To be noted: rats; day 2; application rate 10 mg/kg; cited from earlier work.
The subject of series [5] is Amblyomma hebraeum. The following applies: 100 ppm; cited from earlier work.
For a further series, the system named is Lucilia cuprina. To be noted: 100 ppm; cited from earlier work.
In series [6] the test system is Ctenocephalides felis. The following applies: Ctenocephalides felis contact test; 1 μg/cm^2; cited from earlier work.
The subject of series [7] is Amblyomma hebraeum. To be noted: Amblyomma hebraeum contact test; 1 μg/cm^2; cited from earlier work.
Another series concerns Rhipicephalus sanguineus. The following applies: Rhipicephalus sanguineus contact test; 1 μg/cm^2; cited from earlier work.
Series [8] has as its system Ctenocephalides felis. The following applies: Ctenocephalides felis oral test; 100 ppm; cited from earlier work.

As for `Cn1nc(C(F)(F)C(F)(F)F)c(C(F)(F)F)c1-n1cc(-c2ccc(Cl)c(C(=O)NC3(C#N)CC3)c2)cn1` [Tigolaner], the efficacy with Musca domestica, in the series with Boophilus microplus [1], in the series with Ixodes ricinus, with Boophilus microplus [4], in the series on Amblyomma hebraeum [5] and in the series with Lucilia cuprina was 100% each time. For the same compound, the efficacy with Ctenocephalides felis [6], in the series on Amblyomma hebraeum [7], in the series with Rhipicephalus sanguineus and in the series with Ctenocephalides felis [8] was 100% throughout. The “solubility of tigolaner in solketal in the presence of praziquantel” value in [2] (in the presence of praziquantel, in particular of 7.5 to 8.5% w/w of praziquantel) was “more than 10.5 % w/w”. Also, in series [2] (presence of lactic acid), the “effect of lactic acid on solubility of tigolaner in 1,2-isopropylideneglycerol” value is on record as “slightly lowers the solubility”. The “solubility of tigolaner in solketal alone” value in series [2] (solketal alone) is recorded as 9.5-9.9 % w/w. For the same compound, the efficacy against fleas is listed as above 95% with Ctenocephalides felis [3] (day 2) and above 90% in the series on Ctenocephalides felis [3] (day 9). The “efficacy against tick nymphs” value in the series with Dermacentor variabilis was above 90%.
